From US20190343780A1, “LOW DOSE DRUG COMBINATIONS FOR USE IN PREVENTING AND TREATING NEURONAL DAMAGE” (priority 2016, published 2019)
Like-named read-outs stand apart in the source and are kept apart here.

Columns and labels:
[1] = tested on: rats with hemic hypoxia (sodium nitrite); experiment: Hemic hypoxia in rats (sodium nitrite 80 mg/kg), oral treatment; assay type: in vivo, rat; details: 40 minutes before sodium nitrite
Protocol: Table 5 summarizes the anti-hypoxic and neuroprotective effects of such treatments.
Rats were treated as in Example 5. Table 6 summarizes the neuroprotective effect of such treatments.

[2] = intravenous injection during the first 12 hours after stroke, cited from earlier work
[3] = tested on: rats with focal cerebral ischemia; details: cited from earlier work
[4] = tested on: rats with hemic hypoxia (sodium nitrite); experiment: Hemic hypoxia in rats (sodium nitrite 80 mg/kg I.M.), treatment I.M.; assay type: in vivo, rat; details: for ED50: Rattus norvegicus, im; for ED50 / Dose with significant anti-hypoxic effect: combination: memantine dose; for Dose with significant anti-hypoxic effect: text summary of Table 1 (hemic and asphyctic hypoxia)
Protocol: (§1) Rats were intra-muscularly (I.M.) administered with 80 mg/kg sodium nitrite to achieve hemic hypoxia (Serdiuk et al., Eksp. Klin. Farmakol., 2000, Vol. 63(6), pages 3-8). Mice were caged in a 100 cm^3 sealed glass chamber to achieve asphyctic hypoxia, which simulates cerebral ischemia (Serdiuk et al., Eksp. Klin. Farmakol., 2000, Vol. 63(6), pages 3-8; Khalili et al., Eur. Rev. Med. Pharmacol. Sci., 2015, Vol. 19(17), pages 3282-3285).
(§2) Rats and mice were treated as in Example 1.

[5] = tested on: mice with asphyctic hypoxia; experiment: Asphyctic hypoxia in mice (sealed 100 cm^3 glass chamber), treatment I.P.; assay type: in vivo; details: for ED50: Mus musculus, ip, Dose increasing the life of mice by 50%, combination: memantine dose, read-out: Asphyctic hypoxia (ED50), mg/kg, I.P. admin.
Protocol: as §1, §2

[6] = tested on: mice, toxic stimulation of NMDA receptors of brain
Protocol: Mice were I.P. administered with 250 mg/kg N-Methyl-D-aspartic acid (NMDA), a neurotoxin causing clonic-tonic seizure and death in 100% of animals by toxic stimulating of NMDA receptors of brain (Leander et al., Brain Res., 1988, Vol. 448 (1), pages 115-120). Rats were I.M. administered with 12 mg/kg Kainic acid to achieve chronic kainate degeneration of the brain by stimulation of AMPA/kainate receptors (Serdyuk et al., Bull. Exp. Biol. Med., 2014, Vol. 157(1), pages 15-17). Chronic kainate degeneration leads to chronic kainate lethality, neurologic disturbances and large weight loss (Serdyuk et al., Bull. Exp. Biol. Med., 2014, Vol. 157(1), pages 15-17).
Animals were then treated with deionized water (control), memantine, epinephrine or combinations of memantine and epinephrine, which were I.P. or I.M administered, as indicated.
Rats were treated as in Example 3.

[7] = tested on: rats with chronic kainate degeneration of the brain (AMPA/kainate receptors); experiment: Chronic kainate degeneration in rats (kainic acid 12 mg/kg I.M.), treatment I.M.; assay type: in vivo, rat; details: for Chronic Kainate lethality in rats (%) / Rats with heavy neurologic disturbances (%) / Rats with large weight loss (%): I.M.; for Chronic Kainate lethality in rats (%): 2 weeks after kainate; for Rats with heavy neurologic disturbances (%): score 3 to 5 points; for Dose with significant neuroprotective effect: text summary of Table 3 (NMDA lethality and kainate degeneration)
Protocol: Table 3 summarizes the neuroprotective effect of such treatments.
Rats were treated as in Example 3. Table 4 summarizes the neuroprotective effect of such treatments.

[8] = tested on: rats with chronic kainate degeneration of the brain (AMPA/kainate receptors); experiment: Chronic kainate degeneration in rats (kainic acid 12 mg/kg), oral treatment; assay type: in vivo, rat; details: for Chronic kainate lethality in rats, % per group: 2 weeks after kainate; for Rats with heavy neurological diseases (%): score 3 to 5 points; for ED50: Rattus norvegicus
Protocol: Rats were either orally administered with 80 mg/kg sodium nitrite to achieve hemic hypoxia, as explained In Example 1, or with 12 mg/kg Kainic acid to achieve chronic kainate degeneration of the brain by stimulation of AMPA/kainate receptors.

[9] = cited from earlier work
[10] = Dose 5 mg/kg (combination: memantine dose)
[11] = Dose 10 mg/kg (combination: memantine dose)
[12] = Dose increasing the life of rats by 50%, read-out: Hemic hypoxia (ED50), mg/kg, I.M. admin.
[13] = text summary of Table 2, span over hemic and asphyctic hypoxia, read-out: ED50, anti-hypoxic effect

SMILES: CNC[C@H](O)c1cccc(O)c1 [Phenylephrine, phenylephrine]
- Hemic hypoxia, life of rats (min), Oral admin. ([1]; Dose 0.02 mg/kg): 60 ± 7 min
- Hemic hypoxia, life of rats (min), Oral admin. ([1]; Dose 0.05 mg/kg): 62 ± 9 min
- Hemic hypoxia, life of rats (min), Oral admin. ([1]; Dose 0.1 mg/kg): 67 ± 10 min
- Hemic hypoxia, life of rats (min), Oral admin. ([1]; Dose 0.5 mg/kg): 77 ± 12 min
- Hemic hypoxia, life of rats (min), Oral admin. ([1]; Dose 1.0 mg/kg (combination: memantine dose)): 88 ± 14 ^1 min
- Cerebral blood flow [2]: significant improvement in cerebral blood flow
- Blood pressure after induced hypertension ([2]; from 100-110 mm): 160-170 mm
- Effect on infarction and neurological damage ([3]; intravenous administration before ligation of the middle cerebral artery): prevented infarction development and reduced neurological damage

SMILES: CC12CC3CC(C)(C1)CC(N)(C3)C2 [Memantine, memantine]
- Hemic hypoxia, rat life duration (min), I.M. admin. [4, 10]: 63 ± 5 ^ min
- Hemic hypoxia, rat life duration (min), I.M. admin. [4, 11]: 77 ± 8 ^ min
- Hemic hypoxia, rat life duration (min), I.M. admin. ([4]; Dose 20 mg/kg): 86 ± 9 ^1 min
- ED50 [4, 12]: 18.2 ± 2.3 mg/kg
- ED50 [4, 13]: 18 to 20 mg/kg
- Dose with significant anti-hypoxic effect [4]: 20 mg/kg
- Asphyctic hypoxia, mice life duration (sec), I.P. admin. [5, 10]: 850 ± 80 s
- Asphyctic hypoxia, mice life duration (sec), I.P. admin. [5, 11]: 936 ± 93 s
- Asphyctic hypoxia, mice life duration (sec), I.P. admin. ([5]; Dose 20 mg/kg): 1070 ± 114 ^1 sec
- ED50 [5]: 19.9 ± 2.8 mg/kg
- Acute NMDA lethality in mice (%), I.P. admin. [6, 10]: 100 ^ %
- Acute NMDA lethality in mice (%), I.P. admin. [6, 11]: 60 ^ %
- Acute NMDA lethality in mice (%), I.P. admin. ([6]; Dose 20 mg/kg): 16 ^1%
- Chronic Kainate lethality in rats (%) [7, 10]: 90%
- Rats with heavy neurologic disturbances (%) ([7]; Dose 5 mg/kg (combination: memantine dose), 7-14 days after kainate): 90 ^ %
- Rats with large weight loss (%) ([7]; Dose 5 mg/kg (combination: memantine dose), underweight more than 30%, 7-14 days after kainate): 90 ^ %
- Chronic Kainate lethality in rats (%) [7, 11]: 70%
- Rats with heavy neurologic disturbances (%) ([7]; Dose 10 mg/kg (combination: memantine dose), 7-14 days after kainate): 80 ^ %
- Rats with large weight loss (%) ([7]; Dose 10 mg/kg (combination: memantine dose), underweight more than 30%, 7-14 days after kainate): 70 ^ %
- Chronic Kainate lethality in rats (%) ([7]; Dose 20 mg/kg): 40 ^1%
- Rats with heavy neurologic disturbances (%) ([7]; Dose 20 mg/kg, 7-14 days after kainate): 50 ^1%
- Rats with large weight loss (%) ([7]; Dose 20 mg/kg, underweight more than 30%, 7-14 days after kainate): 40 ^1%
- ED50 ([7]; Rattus norvegicus, im, read-out: Dose reducing the number of rats with a large deficit of weight by 50% (ED50), mg/kg, I.M. admin., underweight more than 30%, 7-14 days after kainate, combination: memantine dose): 17.6 ± 2.4 mg/kg
- Dose with significant neuroprotective effect ([7]; combination: memantine dose): 20 mg/kg
- Hemic hypoxia, life of rats (min), Oral admin. [1, 10]: 62 ± 7 min
- Hemic hypoxia, life of rats (min), Oral admin. [1, 11]: 65 ± 9 min
- Hemic hypoxia, life of rats (min), Oral admin. ([1]; Dose 20 mg/kg): 73 ± 11 min
- Chronic kainate lethality in rats, % per group ([8]; Dose 5 mg/kg (combination: memantine dose), oral): 90%
- Rats with heavy neurological diseases (%) ([8]; Dose 5 mg/kg (combination: memantine dose), oral, 7-14 days after kainate): 90%
- Rats with large weight loss (%) ([8]; Dose 5 mg/kg (combination: memantine dose), oral, underweight more than 30%, 7-14 days after kainate): 90%
- Chronic kainate lethality in rats, % per group ([8]; Dose 10 mg/kg (combination: memantine dose), oral): 80%
- Rats with heavy neurological diseases (%) ([8]; Dose 10 mg/kg (combination: memantine dose), oral, 7-14 days after kainate): 80%
- Rats with large weight loss (%) ([8]; Dose 10 mg/kg (combination: memantine dose), oral, underweight more than 30%, 7-14 days after kainate): 70%
- Chronic kainate lethality in rats, % per group ([8]; Dose 20 mg/kg, oral): 60% ^3
- Rats with heavy neurological diseases (%) ([8]; Dose 20 mg/kg, oral, 7-14 days after kainate): 70%
- Rats with large weight loss (%) ([8]; Dose 20 mg/kg, oral, underweight more than 30%, 7-14 days after kainate): 60% ^3
- ED50 ([8]; read-out: Dose decreasing the number of rats with large weight loss by 50% (ED50), mg/kg, Oral admin., underweight more than 30%, 7-14 days after kainate, combination: memantine dose): 18.8 ± 2.4 mg/kg
- ED50 ([8]; text summary of Table 6, span over hemic hypoxia and kainate endpoints, oral, combination: memantine dose, read-out: ED50, anti-hypoxic and neuroprotective effects): 18 to 20 mg/kg
- Dose with significant neuroprotective effects ([8]; text summary of Table 5, oral, combination: memantine dose): 20 mg/kg
- Effect on brain injury and neurological disorders ([3]; prophylactic administration, 20 mg/kg): prevented injury of the brain and reduced neurological disorders
- Neurological and cognitive function of stroke patients ([9]; 20 mg for 6 months, subacute and recovery phase of stroke): significantly improved neurological and cognitive function
- Side effects of prolonged use at a high dose ([9]; prolonged use, high dose): development of agitation, insomnia, irritability, and psychosis

SMILES: CNC[C@H](O)c1ccc(O)c(O)c1 [Epinephrine, epinephrine]
- Hemic hypoxia, rat life duration (min), I.M. admin. ([4]; Dose 0.01 mg/kg): 63 ± 7 ^ min
- Hemic hypoxia, rat life duration (min), I.M. admin. ([4]; Dose 0.02 mg/kg): 69 ± 8 ^ min
- Hemic hypoxia, rat life duration (min), I.M. admin. ([4]; Dose 0.1 mg/kg): 113 ± 16 ^2 min
- Hemic hypoxia, rat life duration (min), I.M. admin. ([4]; Dose 0.2 mg/kg): 122 ± 19 ^2 min
- ED50 [4, 12]: 0.06 ± 0.01 mg/kg
- ED50 [4, 13]: 0.06 to 0.12 mg/kg
- Dose with significant anti-hypoxic effect [4]: ≥ 0.1 mg/kg
- Asphyctic hypoxia, mice life duration (sec), I.P. admin. ([5]; Dose 0.01 mg/kg): 711 ± 79 s
- Asphyctic hypoxia, mice life duration (sec), I.P. admin. ([5]; Dose 0.02 mg/kg): 750 ± 90 s
- Asphyctic hypoxia, mice life duration (sec), I.P. admin. ([5]; Dose 0.1 mg/kg): 990 ± 123 s
- Asphyctic hypoxia, mice life duration (sec), I.P. admin. ([5]; Dose 0.2 mg/kg): 1250 ± 155 ^1 sec
- ED50 [5]: 0.12 ± 0.02 mg/kg
- Acute NMDA lethality in mice (%), I.P. admin. ([6]; Dose 0.01 mg/kg): 100 ^ %
- Acute NMDA lethality in mice (%), I.P. admin. ([6]; Dose 0.02 mg/kg): 100 ^ %
- Acute NMDA lethality in mice (%), I.P. admin. ([6]; Dose 0.1 mg/kg): 30 ^1%
- Acute NMDA lethality in mice (%), I.P. admin. ([6]; Dose 0.2 mg/kg): 10 ^2%
- Chronic Kainate lethality in rats (%) ([7]; Dose 0.01 mg/kg): 90%
- Rats with heavy neurologic disturbances (%) ([7]; Dose 0.01 mg/kg, 7-14 days after kainate): 100 ^ %
- Rats with large weight loss (%) ([7]; Dose 0.01 mg/kg, underweight more than 30%, 7-14 days after kainate): 100 ^ %
- Chronic Kainate lethality in rats (%) ([7]; Dose 0.02 mg/kg): 80%
- Rats with heavy neurologic disturbances (%) ([7]; Dose 0.02 mg/kg, 7-14 days after kainate): 90 ^ %
- Rats with large weight loss (%) ([7]; Dose 0.02 mg/kg, underweight more than 30%, 7-14 days after kainate): 80 ^ %
- Chronic Kainate lethality in rats (%) ([7]; Dose 0.1 mg/kg): 20 ^1%
- Rats with heavy neurologic disturbances (%) ([7]; Dose 0.1 mg/kg, 7-14 days after kainate): 30 ^1%
- Rats with large weight loss (%) ([7]; Dose 0.1 mg/kg, underweight more than 30%, 7-14 days after kainate): 20 ^2%
- Chronic Kainate lethality in rats (%) ([7]; Dose 0.2 mg/kg): 0 ^2%
- Rats with heavy neurologic disturbances (%) ([7]; Dose 0.2 mg/kg, 7-14 days after kainate): 10 ^2%
- Rats with large weight loss (%) ([7]; Dose 0.2 mg/kg, underweight more than 30%, 7-14 days after kainate): 0 ^2%
- Dose with significant neuroprotective effect ([7]; combination: memantine dose): ≥ 0.1 mg/kg
